Test results taken from US8252723B2, “Substituted 1-(3-pyridinyl)pyrazol-4-ylacetic acids, processes for their preparation and their use as herbicides and plant growth regulators” (Bayer CropScience AG, priority 2006, dated 2012).
Blank lines part the entries; values can stand above or below the molecule they belong to.

How the values were obtained:
[1] = system: summer wheat of the cultivar 'Triso'; test: Plant growth regulation test: culm stabilization of crop plants; assay type: in vivo; conditions: application rate of 30 to 300 g of active substance per hectare, treated at stage BBCH 31, culm length measured after ears had formed
Method in brief: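 Wettable-powder formulation with adjuvant (1 l/ha) sprayed at 300 l water/ha onto pot-grown plants at BBCH 31, then kept outdoors. After ear formation culm length was measured; culm stabilization is expressed as percent of untreated control.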

[2] = system: weed plants such as Lolium multiflorum, Amaranthus retroflexus, Sinapis alba, Stellaria media and Setaria viridis; test: Post-emergence effect on weeds (greenhouse pot test, visual scoring); assay type: in vivo; conditions: application rate of 500 g or less of active substance per hectare, visual scoring after about 3 to 4 weeks vs untreated controls, read-out: herbicidal action (control)
[3] = system: weed plants such as Lolium multiflorum, Amaranthus retroflexus, Sinapis alba, Stellaria media and Setaria viridis; test: Pre-emergence effect on weeds (greenhouse pot test, visual scoring); assay type: in vivo; conditions: pre-emergence method, application rate of 1 kg or less of active substance per hectare, visual scoring after 3 to 4 weeks vs untreated controls; read-out: herbicidal action (control)
Excerpt: Seeds or sections of rhizome from monocotyledonous and dicotyledonous weed plants were laid out in sandy loam soil in plastic pots, and covered with soil. The compounds according to the invention, formulated as wettable powders or emulsifiable concentrates, were then applied, in the form of aqueous suspensions or emulsions, at various dosages, onto the surface of the covering soil, at an application rate of 600 to 800 l of water/ha (converted).

melting point: 172 °C
Structure (SMILES): O=C(O)Cc1c(-c2ccccc2)nn(-c2cccnc2)c1-c1ccccc1 [Example 1-1, 3,5-diphenyl-1-(3-pyridyl)pyrazole-4-acetic acid]
longitudinal growth (culm length) of summer wheat [1]: effectively shortened | pest or weed control at up to 500 g/ha [2]: ≥ 70% | pest or weed control at up to 1000 g/ha [3]: ≥ 70%

melting point: 192 °C
Structure (SMILES): Cc1nn(-c2cccnc2)c(-c2ccccc2)c1CC(=O)O [Example 1-2, 3-methyl-5-phenyl-1-(3-pyridyl)pyrazole-4-acetic acid]
longitudinal growth (culm length) of summer wheat [1]: effectively shortened | pest or weed control at up to 500 g/ha [2]: ≥ 70% | pest or weed control at up to 1000 g/ha [3]: ≥ 70%

Structure (SMILES): Cc1ccncc1-n1nc(C)c(CC(=O)O)c1-c1ccccc1 [Example 1-10, [3-Methyl-1-(4-methylpyridin-3-yl)-5-phenyl-1H-pyrazol-4-yl]acetic acid]
longitudinal growth (culm length) of summer wheat [1]: effectively shortened | pest or weed control at up to 500 g/ha [2]: ≥ 70% | pest or weed control at up to 1000 g/ha [3]: ≥ 70%

Structure (SMILES): Cc1nn(-c2cccnc2)c(-c2cccc(Cl)c2)c1CC(=O)O [Example 1-17, [5-(3-Chlorophenyl)-3-methyl-1-pyridin-3-yl-1H-pyrazol-4-yl]acetic acid]
longitudinal growth (culm length) of summer wheat [1]: effectively shortened | pest or weed control at up to 500 g/ha [2]: ≥ 70% | pest or weed control at up to 1000 g/ha [3]: ≥ 70%

Structure (SMILES): COC(=O)Cc1c(C)nn(-c2cnccc2C)c1-c1ccccc1 [Example 2-10, Methyl [3-methyl-1-(4-methylpyridin-3-yl)-5-phenyl-1H-pyrazol-4-yl]acetate]
longitudinal growth (culm length) of summer wheat [1]: effectively shortened | pest or weed control at up to 500 g/ha [2]: ≥ 70% | pest or weed control at up to 1000 g/ha [3]: ≥ 70%

Structure (SMILES): COC(=O)Cc1c(C)nn(-c2cccnc2)c1-c1cccc(Cl)c1 [Example 2-17, Methyl [5-(3-chlorophenyl)-3-methyl-1-pyridin-3-yl-1H-pyrazol-4-yl]acetate]
longitudinal growth (culm length) of summer wheat [1]: effectively shortened | pest or weed control at up to 500 g/ha [2]: ≥ 70% | pest or weed control at up to 1000 g/ha [3]: ≥ 70%

Structure (SMILES): C#CCOC(=O)Cc1c(C)nn(-c2cnccc2C)c1-c1ccccc1 [Example 3-76, Prop-2-yn-1-yl [3-methyl-1-(4-methylpyridin-3-yl)-5-phenyl-1H-pyrazol-4-yl]acetate]
longitudinal growth (culm length) of summer wheat [1]: effectively shortened | pest or weed control at up to 500 g/ha [2]: ≥ 70% | pest or weed control at up to 1000 g/ha [3]: ≥ 70%

Structure (SMILES): Cc1nn(-c2cccnc2)c(-c2ccc(O)nc2)c1CC(=O)OCC1CC1 [Example 3-87]
longitudinal growth (culm length) of summer wheat [1]: effectively shortened

Structure (SMILES): Cc1nn(-c2cccnc2)c(-c2ccc(F)cc2)c1CC(=O)OCC1CC1 [Example 3-91]
longitudinal growth (culm length) of summer wheat [1]: effectively shortened

Structure (SMILES): Cc1ccncc1-n1nc(C)c(CC(=O)OCC2CC2)c1-c1ccc(Cl)cc1 [Example 3-98]
longitudinal growth (culm length) of summer wheat [1]: effectively shortened

Structure (SMILES): Cc1ccncc1-n1nc(C)c(CC(=O)OCC2CC2)c1-c1ccccc1 [Example 3-99, Cyclopropylmethyl [3-methyl-1-(4-methylpyridin-3-yl)-5-phenyl-1H-pyrazol-4-yl]acetate]
longitudinal growth (culm length) of summer wheat [1]: effectively shortened | pest or weed control at up to 500 g/ha [2]: ≥ 70% | pest or weed control at up to 1000 g/ha [3]: ≥ 70%

Structure (SMILES): O=C(Cc1cnn(-c2cccnc2)c1-c1ccccc1)OCC1CC1 [Example 3-100]
longitudinal growth (culm length) of summer wheat [1]: effectively shortened

Structure (SMILES): Cc1nn(-c2cccnc2)c(-c2ccccc2)c1CC(=O)OCC(F)=C(Cl)Cl [Example 3-101]
longitudinal growth (culm length) of summer wheat [1]: effectively shortened

Structure (SMILES): Cc1nn(-c2cccnc2)c(-c2ccccc2)c1CC(=O)OCC1(C)CC1 [Example 3-105]
longitudinal growth (culm length) of summer wheat [1]: effectively shortened

Structure (SMILES): Cc1nn(-c2cccnc2)c(-c2ccccc2)c1CC(=O)OCC#CCCl [Example 3-109]
longitudinal growth (culm length) of summer wheat [1]: effectively shortened

Structure (SMILES): Cc1nn(-c2cccnc2)c(-c2ccccc2)c1CC(=O)OCC1CC1(Cl)Cl (stereo not shown) [Example 3-113]
longitudinal growth (culm length) of summer wheat [1]: effectively shortened

Structure (SMILES): CC#CCOC(=O)Cc1c(C)nn(-c2cccnc2)c1-c1ccccc1 [Example 3-117]
longitudinal growth (culm length) of summer wheat [1]: effectively shortened

Structure (SMILES): CC#CCOC(=O)Cc1c(C)nn(-c2cccnc2)c1-c1ccc(Cl)cc1 [Example 3-118]
longitudinal growth (culm length) of summer wheat [1]: effectively shortened

Structure (SMILES): CC#CCOC(=O)Cc1c(C)nn(-c2cccnc2)c1-c1ccccn1 [Example 3-136]
longitudinal growth (culm length) of summer wheat [1]: effectively shortened

Structure (SMILES): CC#CCOC(=O)Cc1c(C)nn(-c2cnccc2C)c1-c1ccccc1 [Example 3-139]
longitudinal growth (culm length) of summer wheat [1]: effectively shortened

Structure (SMILES): C#CC(C)OC(=O)Cc1c(C)nn(-c2cccnc2)c1-c1ccccc1 (stereo not shown) [Example 3-140]
longitudinal growth (culm length) of summer wheat [1]: effectively shortened

Structure (SMILES): Cc1nn(-c2cccnc2)c(-c2ccccc2)c1CC(=O)OC(C)C1CC1 (stereo not shown) [Example 3-144]
longitudinal growth (culm length) of summer wheat [1]: effectively shortened

Structure (SMILES): C=CCOC(=O)Cc1c(C)nn(-c2cccnc2)c1-c1ccccc1 [Example 3-148]
longitudinal growth (culm length) of summer wheat [1]: effectively shortened

Structure (SMILES): CC(C)=CCOC(=O)Cc1c(C)nn(-c2cccnc2)c1-c1ccccc1 [Example 3-152]
longitudinal growth (culm length) of summer wheat [1]: effectively shortened

Structure (SMILES): C=C(C)COC(=O)Cc1c(C)nn(-c2cccnc2)c1-c1ccccc1 [Example 3-156]
longitudinal growth (culm length) of summer wheat [1]: effectively shortened

Structure (SMILES): C/C=C/C(C)OC(=O)Cc1c(C)nn(-c2cccnc2)c1-c1ccccc1 (stereo not shown) [Example 3-160]
longitudinal growth (culm length) of summer wheat [1]: effectively shortened

Structure (SMILES): Cc1nn(-c2cccnc2)c(-c2ccccc2)c1CC(=O)OCC#Cc1ccccc1 [Example 3-164]
longitudinal growth (culm length) of summer wheat [1]: effectively shortened

Structure (SMILES): Cc1nn(-c2cccnc2)c(-c2ccccc2)c1CC(=O)OCC1CCC1 [Example 3-168]
longitudinal growth (culm length) of summer wheat [1]: effectively shortened

Structure (SMILES): Cc1nn(-c2cccnc2)c(-c2ccccc2)c1CC(=O)OCC1CCCC1 [Example 3-172]
longitudinal growth (culm length) of summer wheat [1]: effectively shortened

Structure (SMILES): Cc1nn(-c2cccnc2)c(-c2ccc(Cl)cc2)c1CC(=O)OCC1CCCCC1 [Example 3-177]
longitudinal growth (culm length) of summer wheat [1]: effectively shortened

Structure (SMILES): C=CCCOC(=O)Cc1c(C)nn(-c2cccnc2)c1-c1ccccc1 [Example 3-180]
longitudinal growth (culm length) of summer wheat [1]: effectively shortened

Structure (SMILES): C=C(Cl)COC(=O)Cc1c(C)nn(-c2cccnc2)c1-c1ccccc1 [Example 3-184]
longitudinal growth (culm length) of summer wheat [1]: effectively shortened

Structure (SMILES): C=C(Cl)COC(=O)Cc1c(C)nn(-c2cccnc2)c1-c1cccs1 [Example 3-186]
longitudinal growth (culm length) of summer wheat [1]: effectively shortened

Structure (SMILES): C=C(Cl)COC(=O)Cc1c(C)nn(-c2cccnc2)c1-c1ccsc1 [Example 3-187]
longitudinal growth (culm length) of summer wheat [1]: effectively shortened

Structure (SMILES): C=C(Cl)COC(=O)Cc1c(C)nn(-c2cccnc2)c1-c1sccc1C [Example 3-188]
longitudinal growth (culm length) of summer wheat [1]: effectively shortened

Structure (SMILES): C=C(Cl)COC(=O)Cc1c(C)nn(-c2cccnc2)c1-c1cc(C)cs1 [Example 3-189]
longitudinal growth (culm length) of summer wheat [1]: effectively shortened

Structure (SMILES): C=C(Cl)COC(=O)Cc1c(C)nn(-c2cccnc2)c1-c1ccc(Cl)s1 [Example 3-190]
longitudinal growth (culm length) of summer wheat [1]: effectively shortened

Structure (SMILES): C=C(Cl)COC(=O)Cc1c(C)nn(-c2cccnc2)c1-c1ccc(C)s1 [Example 3-191]
longitudinal growth (culm length) of summer wheat [1]: effectively shortened

Structure (SMILES): C=C(Cl)COC(=O)Cc1c(C)nn(-c2cccnc2)c1-c1ccc(OC)nc1 [Example 3-193]
longitudinal growth (culm length) of summer wheat [1]: effectively shortened

Structure (SMILES): C=C(Cl)COC(=O)Cc1c(C)nn(-c2cccnc2)c1-c1ccc(C)nc1 [Example 3-195]
longitudinal growth (culm length) of summer wheat [1]: effectively shortened

Structure (SMILES): C=C(Cl)COC(=O)Cc1c(C)nn(-c2cccnc2)c1-c1ccc(F)cc1 [Example 3-198]
longitudinal growth (culm length) of summer wheat [1]: effectively shortened

Structure (SMILES): C=C(Cl)COC(=O)Cc1c(C)nn(-c2cccnc2)c1-c1ccccn1 [Example 3-203]
longitudinal growth (culm length) of summer wheat [1]: effectively shortened

Structure (SMILES): C=C(Cl)COC(=O)Cc1cnn(-c2cccnc2)c1-c1ccccc1 [Example 3-207]
longitudinal growth (culm length) of summer wheat [1]: effectively shortened

Structure (SMILES): CCOC(=O)Cc1c(C)nn(-c2cccnc2)c1-c1ccccn1 [Example 3-227]
longitudinal growth (culm length) of summer wheat [1]: effectively shortened

Structure (SMILES): COCCOC(=O)Cc1c(C)nn(-c2cccnc2)c1-c1ccc(Cl)cc1 [Example 3-229]
longitudinal growth (culm length) of summer wheat [1]: effectively shortened

Structure (SMILES): Cc1nn(-c2cccnc2)c(-c2ccccn2)c1CC(=O)OCC1CCCO1 (stereo not shown) [Example 3-230]
longitudinal growth (culm length) of summer wheat [1]: effectively shortened

Structure (SMILES): Cc1nn(-c2cccnc2)c(-c2ccc(Cl)cc2)c1CC(=O)OCCN(C)C [Example 3-231]
longitudinal growth (culm length) of summer wheat [1]: effectively shortened

Structure (SMILES): Cc1nn(-c2cccnc2)c(-c2ccc(Cl)cc2)c1CC(=O)OC1COC1 [Example 3-232]
longitudinal growth (culm length) of summer wheat [1]: effectively shortened

Structure (SMILES): Cc1nn(-c2cccnc2)c(-c2ccc(Cl)cc2)c1CC(=O)OCC1(C)COC1 [Example 3-233]
longitudinal growth (culm length) of summer wheat [1]: effectively shortened
